This note sets out measurements from patent US20110178062A1, “INDOLE AND BENZOTHIOPHENE COMPOUNDS AS MODULATORS OF THE HISTAMINE H3 RECEPTOR” (priority 2007, published 2011).

Test [1] addresses T1, human H3 receptor (Homo sapiens, UniProt Q9Y5N1).
T1 construct: expressed in transfected cells; host or cells: SK-N-MC cells
Kind of test: Cyclic AMP Accumulation, SK-N-MC reporter cells (human H3). Format: cell-based. The settings on record: SK-N-MC cells expressing reporter construct and human H3 receptor; read-out: Human pA2 (converted). An excerpt: Sublines of SK-N-MC cells were created that expressed a reporter construct and either the human or rat H3 receptor. The pA2 values were obtained as described by Barbier et al. (2004). Data for compounds tested in these assays are presented in Table 3, as an average of the results obtained (NT=not tested).

The target of test [2] is T2, cloned human H3 receptors, stably expressed in SK-N-MC cells (Homo sapiens, UniProt Q9Y5N1).
T2 construct: expressed in transfected cells; host or cells: SK-N-MC cells
T2 sequence (Q9Y5N1 whole entry): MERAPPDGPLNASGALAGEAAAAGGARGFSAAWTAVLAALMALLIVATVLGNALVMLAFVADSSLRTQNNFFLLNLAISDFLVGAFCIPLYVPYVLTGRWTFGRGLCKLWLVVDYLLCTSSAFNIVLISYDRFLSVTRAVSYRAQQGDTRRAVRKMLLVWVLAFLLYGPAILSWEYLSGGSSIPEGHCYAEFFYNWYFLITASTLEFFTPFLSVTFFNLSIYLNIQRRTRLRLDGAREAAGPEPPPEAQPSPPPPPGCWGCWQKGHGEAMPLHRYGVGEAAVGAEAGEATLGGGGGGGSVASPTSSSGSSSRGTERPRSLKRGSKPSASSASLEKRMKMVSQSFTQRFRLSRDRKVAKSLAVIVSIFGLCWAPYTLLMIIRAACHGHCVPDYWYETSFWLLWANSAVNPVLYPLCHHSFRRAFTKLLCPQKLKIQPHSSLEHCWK
Nature of the test: H3 Receptor Binding (Human). The settings on record: average of the results obtained. On the procedure: Binding of compounds to the cloned human H3 receptors, stably expressed in SK-N-MC cells, was performed as described by Barbier, A. J. et al. (Br. J. Pharmacol. 2004, 143(5), 649-661). Data for compounds tested in this assay are presented in Table 1 as an average of the results obtained.

T1 sequence (Q9Y5N1 whole entry): as above

Turning to `Cn1cc(CN2CCOCC2)c2ccc(C(=O)N3CCN(C4CCC4)CC3)cc21` [Example 3, (4-Cyclobutyl-piperazin-1-yl)-(1-methyl-3-morpholin-4-ylmethyl-1H-indol-6-yl)-methanone], the Kb in test [1] was 0.501 nM. In test [2], the affinity corresponds to a Ki of 1 nM.
For `O=C(c1ccc2c(CN3CCOCC3)c[nH]c2c1)N1CCN(C2CCC2)CC1` [Example 6, (4-Cyclobutyl-piperazin-1-yl)-(3-morpholin-4-ylmethyl-1H-indol-6-yl)-methanone], the Kb in test [1] is 0.155 nM. Besides, the Ki – broadly, a measure of affinity in units of concentration, obtained from inhibition or displacement – in test [2] is 1 nM.
Take `CC(C)N1CCN(C(=O)c2cccc3c(CN4CCOCC4)c[nH]c23)CC1` [Example 20, (4-Isopropyl-piperazin-1-yl)-(3-morpholin-4-ylmethyl-1H-indol-7-yl)-methanone]: the Kb in test [1] is 8.13 nM. In addition, the affinity in test [2] corresponds to a Ki of 10 nM.
The matching figures for `O=C(c1cccc2c(CN3CCCCC3)c[nH]c12)N1CCN(C2CCC2)CC1` [Example 23, (4-Cyclobutyl-piperazin-1-yl)-(3-piperidin-1-ylmethyl-1H-indol-7-yl)-methanone]: 0.575 nM and 2 nM.
As to `CC(C)N1CCN(C(=O)c2ccc3c(CN4CCCCC4)cn(S(C)(=O)=O)c3c2)CC1` [Example 25, (4-Isopropyl-piperazin-1-yl)-(1-methanesulfonyl-3-piperidin-1-ylmethyl-1H-indol-6-yl)-methanone], the Kb in test [1] is 3.09 nM. The same molecule yielded an inhibitory constant (Ki) in test [2] of 3 nM.
Consider `CC(C)N1CCN(C(=O)c2ccc3c(CN4CCCC(CO)C4)c[nH]c3c2)CC1` (stereo not shown) [Example 44, [3-(3-Hydroxymethyl-piperidin-1-ylmethyl)-1H-indol-6-yl]-(4-isopropyl-piperazin-1-yl)-methanone], for which the Kb in test [1] was 1.07 nM. The same molecule yielded a Ki in test [2] of 2 nM.
With `CC(C)N1CCN(C(=O)c2ccc3c(CN4CCN(c5ccccc5)CC4)c[nH]c3c2)CC1` [Example 45, (4-Isopropyl-piperazin-1-yl)-[3-(4-phenyl-piperazin-1-ylmethyl)-1H-indol-6-yl]-methanone], the Kb in test [1] is 1.82 nM. This molecule also came in with a Ki in test [2] of 2 nM.
The corresponding values for `CC(C)N1CCN(C(=O)c2ccc3c(CN4CCC(c5ccccc5)CC4)c[nH]c3c2)CC1` [Example 57, (4-Isopropyl-piperazin-1-yl)-[3-(4-phenyl-piperidin-1-ylmethyl)-1H-indol-6-yl]-methanone] are 1.17 nM and 1 nM.
Molecule `O=C(c1ccc2c(CN3CCCN(C4CCC4)CC3)c[nH]c2c1)N1CCC(CO)CC1` [Example 83, [3-(4-Cyclobutyl-[1,4]diazepan-1-ylmethyl)-1H-indol-6-yl]-(4-hydroxymethyl-piperidin-1-yl)-methanone] showed an inhibitory constant (Ki) in test [2] of 27 nM.
The same measure, in the same setting: with `CC(C)N1CCCN(Cc2c[nH]c3cc(C(=O)N4CCC(CO)CC4)ccc23)CC1` [Example 84, (4-Hydroxymethyl-piperidin-1-yl)-[3-(4-isopropyl-[1,4]diazepan-1-ylmethyl)-1H-indol-6-yl]-methanone] the figure was 87 nM.
Molecule `O=C(c1ccc2c(CN3CCC(N4CCCCC4)CC3)c[nH]c2c1)N1CCC(c2ccccc2)CC1` [Example 85, (3-[1,4′]Bipiperidinyl-1′-ylmethyl-1H-indol-6-yl)-(4-phenyl-piperidin-1-yl)-methanone] came in with a Ki in test [2] of 81 nM.
In test [2], `O=C(c1ccc2c(CN3CCN(C4CCCC4)CC3)c[nH]c2c1)N1CCC(c2ccccc2)CC1` [Example 86, [3-(4-Cyclopentyl-piperazin-ylmethyl)-1H-indol-6-yl]-(4-phenyl-piperidin-1-yl)-methanone] came in with a Ki of 27 nM.
Same read-out and setting: the result for `CN(C)C1CCN(Cc2c[nH]c3cc(C(=O)N4CCC(c5ccccc5)CC4)ccc23)C1` (stereo not shown) [Example 87, [3-(3-Dimethylamino-pyrrolidin-1-ylmethyl)-1H-indol-6-yl]-(4-phenyl-piperidin-1-yl)-methanone] reads 20 nM.
Same read-out and setting: the result for `CN(C)C1CCN(Cc2c[nH]c3cc(C(=O)N4CCC(c5ccccc5)CC4)ccc23)CC1` [Example 88, [3-(4-Dimethylamino-piperidin-1-ylmethyl)-1H-indol-6-yl]-(4-phenyl-piperidin-1-yl)-methanone] reads 186 nM.
`O=C(c1ccc2c(CN3CCCN(C4CCC4)CC3)c[nH]c2c1)N1CCC(c2ccccc2)CC1` [Example 89, [3-(4-Cyclobutyl-[1,4]diazepan-1-ylmethyl)-1H-indol-6-yl]-(4-phenyl-piperidin-1-yl)-methanone] displayed a Ki in test [2] of 31 nM.
Same read-out and setting: with `O=C(c1ccc2c(CN3CCC(N4CCCCC4)CC3)c[nH]c2c1)N1CCCCCC1` [Example 90, Azepan-1-yl-(3-[1,4′]bipiperidinyl-1′-ylmethyl-1H-indol-6-yl)-methanone] the figure was 21 nM.
Still for that read-out and setting: with `CN(C)C1CCN(Cc2c[nH]c3cc(C(=O)N4CCCCCC4)ccc23)C1` (stereo not shown) [Example 92, Azepan-1-yl-[3-(3-dimethylamino-pyrrolidin-1-ylmethyl)-1H-indol-6-yl]-methanone] the figure was 15 nM; with `O=C(c1ccc2c(CN3CCN(C4CCC4)CC3)c[nH]c2c1)N1CCCCCC1` [Example 93, Azepan-1-yl-[3-(4-cyclobutyl-piperazin-1-ylmethyl)-1H-indol-6-yl]-methanone], 38 nM; with `CN(C)C1CCN(Cc2c[nH]c3cc(C(=O)N4CCC(CO)CC4)ccc23)C1` (stereo not shown) [Example 94, [3-(3-Dimethylamino-pyrrolidin-1-ylmethyl)-1H-indol-6-yl]-(4-hydroxymethyl-piperidin-1-yl)-methanone], 27 nM.
The same measure, in the same setting: with `CC(C)N1CCCN(Cc2c[nH]c3cc(C(=O)N4CCCCCC4)ccc23)CC1` [Example 95, Azepan-1-yl-[3-(4-isopropyl-[1,4]diazepan-1-ylmethyl)-1H-indol-6-yl]-methanone] the figure was 42 nM; with `CN(C)C1CCN(Cc2c[nH]c3cc(C(=O)N4CCC(CO)CC4)ccc23)CC1` [Example 96, [3-(4-Dimethylamino-piperidin-1-ylmethyl)-1H-indol-6-yl]-(4-hydroxymethyl-piperidin-1-yl)-methanone], 439 nM; with `CC(C)N1CCCN(Cc2c[nH]c3cc(C(=O)N4CCC(c5ccccc5)CC4)ccc23)CC1` [Example 97, [3-(4-Isopropyl-[1,4]diazepan-1-ylmethyl)-1H-indol-6-yl]-(4-phenyl-piperidin-1-yl)-methanone], 59 nM.
On to `O=C(c1ccc2c(CN3CCCN(C4CCC4)CC3)c[nH]c2c1)N1CCCCCC1` [Example 98, Azepan-1-yl-[3-(4-cyclobutyl-[1,4]diazepan-1-ylmethyl)-1H-indol-6-yl]-methanone], for which the Ki in test [2] worked out at 34 nM.
Molecule `O=C(c1ccc2c(CN3CCN(C4CCCC4)CC3)c[nH]c2c1)N1CCC(Cc2ccccc2)CC1` [Example 99, (4-Benzyl-piperidin-1-yl)-[3-(4-cyclopentyl-piperazin-1-ylmethyl)-1H-indol-6-yl]-methanone] showed an inhibition constant Ki in test [2] of 28 nM. The Ki values of the last two molecules are within 1.5-fold of each other.
Take `CN(C)C1CCN(Cc2c[nH]c3cc(C(=O)N4CCC(Cc5ccccc5)CC4)ccc23)CC1` [Example 100, (4-Benzyl-piperidin-1-yl)-[3-(4-dimethylamino-piperidin-1-ylmethyl)-1H-indol-6-yl]-methanone]: the Ki in test [2] came out at 233 nM.
On the same count and under the same terms, the result for `CN(C)C1CCN(Cc2c[nH]c3cc(C(=O)N4CCC(Cc5ccccc5)CC4)ccc23)C1` (stereo not shown) [Example 101] reads 9 nM.
On the same count and under the same terms, with `O=C(c1ccc2scc(CN3CCCCC3)c2c1)N1CCN(C2CCC2)CC1` [Example 103, (4-Cyclobutyl-piperazin-1-yl)-(3-piperidin-1-ylmethyl-benzo[b]thiophen-5-yl)-methanone] the figure was 7 nM; with `CC(C)N1CCN(C(=O)c2ccc3scc(C(=O)N4CCCCC4)c3c2)CC1` [Example 104, [5-(4-Isopropyl-piperazine-1-carbonyl)-benzo[b]thiophen-3-yl]-piperidin-1-yl-methanone], 772 nM; with `O=C(c1ccc2scc(C(=O)N3CCCCC3)c2c1)N1CCN(C2CCC2)CC1` [Example 105, [5-(4-Cyclobutyl-piperazine-1-carbonyl)-benzo[b]thiophen-3-yl]-piperidin-1-yl-methanone], 215 nM.
For the molecule `O=C(c1ccc2c(CN3CCC(N4CCCCC4)CC3)c[nH]c2c1)N1CCC(Cc2ccccc2)CC1` [Example 106, (4-Benzyl-piperidin-1-yl)-(3-[1,4′]bipiperidinyl-1′-ylmethyl-1H-indol-6-yl)-methanone], in test [2], the Ki amounted to 70 nM.
Still for that read-out and setting: the result for `O=C(c1ccc2c(CN3CCN(C4CCC4)CC3)c[nH]c2c1)N1CCC(Cc2ccccc2)CC1` [Example 107, (4-Benzyl-piperidin-1-yl)-[3-(4-cyclobutyl-piperazin-1-ylmethyl)-1H-indol-6-yl]-methanone] reads 12 nM; that for `O=C(c1ccc2c(CN3CCCN(C4CCC4)CC3)c[nH]c2c1)N1CCC(Cc2ccccc2)CC1` [Example 108, (4-Benzyl-piperidin-1-yl)-[3-(4-cyclobutyl-[1,4]diazepan-1-ylmethyl)-1H-indol-6-yl]-methanone], 16 nM.
